Test results published in US20140322315A1, “CYSTEAMINE AND/OR CYSTAMINE FOR TREATING ISCHEMIC INJURY” (The Regents of the University of California, priority 2011, published 2014).
Entries after “also recorded” stand apart in the source; their conditions may differ.

Columns and labels:
[1] = biological target: T1, adiponectin multimers (Homo sapiens, UniProt Q15848); assay: Gastric Banding (GB) serum incubated with cysteamine, adiponectin multimers by western blot; format: biochemical; settings: 37° C. + 45 μM cysteamine, 1 hr
T1 construct: from tissue; host or cells: human serum (pretreatment NAFLD subjects; adults without NAFLD)
T1 sequence (Q15848 19-244): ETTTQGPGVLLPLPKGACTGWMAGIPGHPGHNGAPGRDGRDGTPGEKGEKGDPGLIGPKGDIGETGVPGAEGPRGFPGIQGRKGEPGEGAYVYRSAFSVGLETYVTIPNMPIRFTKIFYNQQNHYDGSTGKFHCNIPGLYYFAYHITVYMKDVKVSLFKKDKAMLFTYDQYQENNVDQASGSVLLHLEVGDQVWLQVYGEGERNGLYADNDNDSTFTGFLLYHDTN
Method: (§1) In another experiment, 25 μl total sample volume (5 μl diluted serum+15 μl water+5 μl 5×LB) was incubated with or without cysteamine at 37° C.×1 hr. A control was prepared without cysteamine and incubated at room temperature for 1 hour on the bench. The preparations were then run on 2×15-well 1.5 mm 3-8% Tris-acetate gels. Primary antibody—mouse anti-adiponectin 1:500, overnight at 4° C. and secondary antibody—goat anti-mouse IR800 1:20,000.
To determine threshold dose of cysteamine on reduction of serum adiponectin multimers, serum was collected and incubated with various concentrations of cysteamine. Six microliters of diluted GB serum was incubated with 24 μl water and various concentrations of cysteamine. Samples, were incubate in a tissue culture incubator for 1 hr at 37° C. with a control tube having no cysteamine addition. To each tube was then added 5 μl of 5× non-reducing loading buffer. The samples were vortexed and loaded on a 3-8% tris-Acetate gel and run for 75 min at 125 V constant current. The gel was transferred and blocked. The blot was then incubated overnight with anti-adiponectin antibody 1:500 in 3% BSA/TBS. The blot was washed and incubated with a secondary anti-mouse antibody for 1 hour. Densitometry was performed on a LICOR densitometer.

[2] = biological target: T1, adiponectin multimers; assay: Lean control / healthy subjects' serum incubated 1 hour with 90 μM cysteamine, adiponectin multimers; format: biochemical
Method: (§2) Total and multimeric adiponectin levels were measured in serum taken from: (1) subject with NAFLD collected at 0 and 24 wks of cysteamine therapy and again 16 wks after stopping therapy (i.e., 40 weeks); (2) pretreated 0-week subjects with NAFLD and adults without NAFLD at room temperature and at 37° C. and also after incubation with cysteamine 90 μM for 1 hour at 37° C.; and (3) pretreated 0-week subjects with NAFLD before and after incubation with cysteamine at varying concentrations (15, 30, 45, 60, 90, 120 μM) for 1 hour at 37° C. to establish dose-response profile.
(§3) Sodium dodecyl sulfate polyacrylamide gel electrophoresis (SDS-PAGE) was performed according to standard Laemmli's method. Sample buffer for non-reducing, non-heat denaturing conditions contained 3% SDS; 50 mmol/1 Tris-HCL, pH 6.8 and 20% glycerol. Proteins were separated using 3-8% Tris-Acetate Gels (Invitrogen, Carlsbad Calif.) with Tris-Acetate running buffer per manufacturer instructions. For immunoblotting, proteins were transferred to nitrocellulose membranes. Membranes were washed with Tween (Tris-buffered Saline, 0.1% […]) and incubated with monoclonal antibody (1:500 BD Transduction Laboratories, San Diego, Calif.). After washing with Tris-buffered saline with 0.1% Tween (4×5 min) membranes were incubated with L-COR secondary antibodies (LI-COR Biotechnology, Lincoln Nebr.) at 1:20,000. Adiponectin multimers were detected and quantified using the LICOR imager and software analysis program. Relative distribution of adiponectin multimers was determined by dividing band density by total density (cellular adiponectin) or by total adiponectin as determined by ELISA (Millipore, Billerica, Mass.). The percentage of adionectin multimer was then multiplied by the total adiponectin level to calculate absolute oligomer value.
as §1

[3] = design: species or system mice (C57BL/6); settings: mouse, in vivo
[4] = biological target: T1, adiponectin multimers; assay: Dose response profile: NAFLD serum incubated with varying cysteamine concentrations, adiponectin multimers; format: biochemical; settings: 1 hour at 37° C.
Method: as §2, §3

[5] = test system: subjects with NAFLD; assay: Pilot study of EC-cysteamine in children with NAFLD: ALT, AST, BMI, leptin, responders; format: in vivo, human; settings: for mean AST / mean ALT: all study subjects; for mean AST: baseline 60.9 IU/L; for mean ALT: baseline 123 IU/L; for mean leptin level: responders, baseline 21.3 ng/mL
From the text: Eleven children ≧10 years, with biopsy-proven NAFLD and an alanine aminotransferase (ALT) level ≧60 IU/L, were enrolled. They were either newly diagnosed or had not received specific therapy for NAFLD such as vitamin E or insulin-sensitizing drugs for at least 3 months before entering the study. All had undertaken standard of care lifestyle changes involving diet and exercise for more than 3 months. The study's primary outcome measure was normalization (≦40 IU/L) or 50% reduction in baseline serum ALT at 24 weeks of EC-cysteamine therapy; these subjects were deemed responders.
Subjects were treated for 24 wks and remained monitored for 24 weeks following its discontinuation. The mean EC-cysteamine dose ingested was 654 mg twice daily or 15.2 mg/kg/day (median dose 900 mg) for 24 wks.
During the pilot study blood was collected at pre-defined intervals. Serum was stored at −80° C. until time of assay. Adequate serum volumes were available in 10 of the 11 subjects with NAFLD and only up to 16 weeks post-treatment.

[6] = test system: circulating leukocytes; settings: Dohil et al., J. Pediatr 2006; cited from earlier work
[7] = lean control serum, 37° C. + 90 μM cysteamine, 1 hr

SMILES: NCCS [cysteamine, Cysteamine]
- HMW adiponectin change ([1]; p=0.009): significantly decrease
- LMW adiponectin change ([1]; p=0.05): significantly increase
- mean percentage of total adiponectin comprised of LMW after incubation ([2]; healthy subjects, 90 μM cysteamine 1 hour, before 11.1%): 18.0%
- mean percentage of total adiponectin comprised of HMW after incubation ([2]; healthy subjects, 90 μM cysteamine 1 hour, before 42.9%): 42.7%
- mean percentage of total adiponectin comprised of MMW after incubation ([2]; healthy subjects, 90 μM cysteamine 1 hour, before 46.0%): 39.3%
- LMW adiponectin absolute level change [2, 7]: no significant change
- MMW adiponectin absolute level change [2, 7]: significant decrease
- LMW adiponectin mean percent change vs baseline ([2]; lean control/healthy serum, 90 μM cysteamine, 1 hr, P<0.005): increase; also recorded: significant percent change
- MMW adiponectin mean percent change vs baseline ([2]; lean control/healthy serum, 90 μM cysteamine, 1 hr, P<0.01): reduction; also recorded: significant percent change
- HMW adiponectin level change ([2]; lean control/healthy serum, 37° C. + 90 μM cysteamine, 1 hr): unchanged; also recorded: no significant change
- body weight reduction [3]: 14%
- mean terminal weight [3]: 18.3 g
- HMW level vs baseline ([4]; 120 μM cysteamine): reductions
- MMW level vs baseline ([4]; 120 μM cysteamine): reductions
- greatest percent increase in LMW ([4]; 120 μM cysteamine): 77%
- MMW levels vs baseline ([4]; all cysteamine concentrations (15-120 μM)): lower than baseline
- mean LMW level increase above baseline ([4]; all cysteamine concentrations used (15-120 μM)): > 60%
- HMW level increase above baseline ([4]; cysteamine 15, 30, 45, and 60 μM): about 10%
- responders (ALT normalization ≦40 IU/L or 50% reduction at 24 weeks) ([5]; 24 weeks EC-cysteamine therapy, subjects with serum analyzed): Seven of the 10
- mean AST ([5]; 24 weeks of treatment, P=0.001): 32 IU/L
- mean ALT ([5]; 24 weeks of treatment, P=0.003): 55 IU/L
- mean AST ([5]; 40 weeks (16 weeks off therapy), P=0.012): 35 IU/L
- mean ALT ([5]; 40 weeks (16 weeks off therapy), P=0.055): 71 IU/L
- mean leptin level ([5]; 24 weeks, P=0.04): 15.7 ng/mL
- mean leptin level ([5]; 40 weeks): 19.5 ng/mL
- intracellular cystine levels in circulating leukocytes [6]: lowering
